Assay results as given in patent US20240277715A1, “COMBINATION THERAPIES COMPRISING A METTL3 INHIBITOR AND A FURTHER ANTICANCER AGENT” (Storm Therapeutics Limited, priority 2021, published 2024).

Tests used:
MOLM13 AML cell line = assay: AML cell viability, CellTiter-Glo combination matrix, MOLM13; assay type: cell-based; details: MOLM13 AML cell line
Experimental: The sensitivity of AML cell lines to combinations of METTL3 inhibitor and standards of care was determined as described. Dose response curves of venetoclax were determined either alone or in the presence of different concentrations of METTL3 inhibitor that are known to be active in cells.
Synergistic interactions occur when the IC50 value decreases in the presence of METTL3 inhibitor. […] Antagonistic interactions occur when the IC50 value increases in the presence of METTL3 inhibitor.
(§1) 24 h before cell treatment, homogenize, stain with Trypan blue and count viable cells using CellOMeter Auto T4. Dilute cells in media at 400 000 cells/ml to ensure an exponential growth the day after.
(§2) On treatment day, homogenize, stain with Trypan blue and count viable cells using CellOMeter Auto T4. Dilute to the proper cell seeding density according to Table 6 in cell media.
(§3) • Dispense drug (see Table 7) and METTL3 inhibitor in semi-log dose-response matrix and DMSO in 384-well plates using D300e Nanodispenser (Tecan). • 6× compound solution preparation: add 40 μL of cell medium in compound-containing plates and homogenize using the ViaFlo device (Integra) • Dispense 30 μl of cell suspension per well in three replicate 384-well white Ultra-Low-Attachment plates (Sbio) using ViaFlow device (Integra) • Transfer 6 μL of the 6× compound solution in each 30 μL cell suspension-containing plate. • Incubate at 37° C. 5% CO2 for 3 to 5 days.
(§4) • Add 35 μL CellTiter-Glo (Promega) in wells (vol/vol) using ViaFlo device (Integra). • Incubate at RT 10 min in the dark, with agitation the first minute, and read luminescence on the Ensight device (Perkin Elmer).
Raw data were converted to % viability by normalization to DMSO controls. IC50 determination was performed using GraphPad Prism and fitting curves to the standard nonlinear regression four parameter equation (Y=Bottom+(Top-Bottom)/(1+(IC50/X)^HillSlope)) least squares method, and synergy was assessed by comparison of IC50 values of the standard of care in the presence or absence of different concentrations of METTL3 inhibitor (see FIGS. 12 to 19).

EMT6 mouse breast cancer = assay: Subcutaneous EMT6 breast cancer syngeneic model, anti-tumour efficacy; assay type: in vivo; details: 10 per group
From the text: The in vivo effect of METTL3 inhibition in combination with anti-PD1 immune checkpoint inhibitor was investigated using syngeneic mouse tumour models in immune-competent hosts. Mouse tumour models can be grown in appropriate host strains and are widely used to investigate the effects of therapeutic agents on the immune system and cancer growth. There are a limited range of mouse syngeneic tumour models available, far fewer than human cell lines, and they are widely used in the art to support potential clinical utility of immune stimulatory approaches across multiple indications. We exemplify the potential role of STM3480 and combinations with immune checkpoint inhibitors such as anti-PD-1 antibodies in multiple tumour models including A20 (murine B cell lymphoma), EMT-6 (murine breast cancer) and CT-26 (murine colorectal cancer).
The objective of this study is to assess the anti-tumour efficacy of STM3480 in combination with anti-PD1 in subcutaneous EMT6 mouse breast cancer model in female BALB/c mice.
EMT6 (#ATCC CRL-2755) mouse breast cancer cells were cultured in (Waymouth's MB 752/1 Medium with 2 mM L-glutamine, 85%; foetal bovine serum (non-heat inactivated), 15%) media. […]
Tumours were measured three times a week and tumour volumes estimated using the formula 0.5 (L×W^2) by measuring the tumour in two dimensions using electronic callipers for the duration of the study. […]

[1] = tested on: FLT3-mutant MOLM-14 AML cell line; assay: AML cell viability, CellTiter-Glo combination matrix, MOLM-14; assay type: cell-based
Experimental: as §1, §2, §3, §4
Raw data were converted to % viability by normalization to DMSO controls.

[2] = tested on: SKOV3 human ovarian cancer cells; assay: Tumour killing assay (TKA), SKOV3 spheroid / PBMC co-culture; assay type: cell-based; details: STM3480 0.05 micromolar, FIG. 1 and 2
Experimental: This experiment evaluates the effects of human donor Peripheral Blood Mononuclear Cells (PBMCs) to attack and kill fluorescently-labelled tumour cells in a co-culture assay. Briefly, test agents are incubated at different concentrations with SKOV3 human ovarian cancer cells in the presence or absence of human donor PBMCs and tumour growth is monitored continuously by real time imaging of the NucLight Red-labelled SKOV3 cells for several days.
NucLight Red (Incucyte, Essen Biosciences)-transduced SK-OV-3 (SK-OV-3-NLR) cells were transferred into Ultra-low attachment 96 well plates with spontaneous spheroid formation occurring over 48 hours. Peripheral blood mononuclear cells (PBMC) were isolated from healthy single donor buffy coats by density separation. Prior to co-culture of SK-OV-3-NLR spheroids with PBMC, SK-OV-3-NLR spheroids were treated with 10 ng/ml of interferon gamma (IFNγ). All treatments, including STM3480 and Pembrolizumab, were added at the point of co-culture in a final total volume of 200 μl/per well. Assay plates were transferred into an IncuCyte S3 and images were collected every 2 hours for 7 days. Following experimental completion, an analysis definition was applied to quantify the Total NLR Integrated Intensity present on a per well basis. Changes in spheroid size were quantified by plotting Total NLR Integrated Intensity against time.

## O=C(NCc1ccc2cc(CNCC3CCC3)[nH]c2c1)c1cc(=O)n2ccccc2n1 [STM3480, N-[(2-{[(cyclobutylmethyl)amino]methyl}-1H-indol-6-yl)methyl]-4-oxo-4H-pyrido[1,2-a]pyrimidine-2-carboxamide]
MOLM13 AML cell line
  interaction with venetoclax: synergistic
EMT6 mouse breast cancer; EMT6, female BALB/c mice, STM3480 50 mg/kg p.o., anti PD1 10 mg/kg i.p. BIW, up to 3 weeks
  Mean tumour volume d21: 141 mm3
EMT6 mouse breast cancer; EMT6
  No. mice with complete regressions: 1
[1]; FLT3-mutant MOLM-14 AML cell line
  interaction with quizartinib: additive
[1]; MOLM-14, combination with quizartinib
  cell viability with increasing concentrations of METTL3 inhibitor: decreasing viability
[2]
  tumour viability (normalized NucLight Red [NLR] fluorescence) against time: greater anti-tumour effect compared to vehicle
